Data taken from PubChem BioAssay AID330 (DTP/NCI, 2004).
Values joined by “and” are separate entries in the source; they are usually repeats but may differ in a detail not shown here. Equal values may be shown once. Toxic doses and inconclusive results are not listed.

System: P388 leukemia ip, CD2F1 mice, survival T/C
Experiment: NCI In Vivo Anticancer Drug Screen. Data for tumor model P388 Leukemia (intraperitoneal) in CD2F1 (CDF1) mice
Settings: endpoint: median survival time, higher = longer survival
Procedure, shortened: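 Mice carrying the transplanted tumor received test compound or vehicle. Survival was recorded in each group, and the value is the treated-group measurement divided by that of the vehicle-treated control group.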

[1] = dose: 12.5 mg/kg/injection, schedule: Q01DX005 (ip), vehicle: saline with Tween-80
[2] = dose: 25.0 mg/kg/injection, schedule: Q01DX005 (ip), vehicle: saline with Tween-80
[3] = dose: 50.0 mg/kg/injection, schedule: Q01DX005 (ip), vehicle: saline with Tween-80
[4] = dose: 60.0 mg/kg/injection, schedule: Q01DX005 (ip), vehicle: saline with Tween-80

COc1ccc(/C=N/N2CN(C(C)C(=O)O)B(NCCC(C)C)N=C2N)cc1OC (stereo not given)
T/C (dose: 60.0 mg/kg/injection, schedule: Q01DX005 (ip), vehicle: saline): 104 % of control
T/C (dose: 120.0 mg/kg/injection, schedule: Q01DX005 (ip), vehicle: saline): 105 % of control

C=C(CN(C)C)C(=O)c1ccc(C(=O)C(=C)CN(C)C)cc1
T/C (dose: 0.78 mg/kg/injection, schedule: Q01DX005 (ip), vehicle: saline): 105 % of control
T/C (dose: 1.56 mg/kg/injection, schedule: Q01DX005 (ip), vehicle: saline): 107 % of control
T/C (dose: 3.12 mg/kg/injection, schedule: Q01DX005 (ip), vehicle: saline): 108 % of control

CCCCCCCCCC(O)C(O)C1CCC(C2CCC(C(O)CCCCCCCCCCCCC3=CC(C)OC3=O)O2)O1 (stereo not given)
T/C (dose: 0.35 mg/kg/injection, schedule: Q01DX005 (ip), vehicle: Klucel (hydroxypropylcellulose) (HPC)): 103 % of control and 97 % of control
T/C (dose: 0.7 mg/kg/injection, schedule: Q01DX005 (ip), vehicle: Klucel (hydroxypropylcellulose) (HPC)): 100 % of control and 99 % of control
T/C (dose: 1.4 mg/kg/injection, schedule: Q01DX005 (ip), vehicle: Klucel (hydroxypropylcellulose) (HPC)): 112 % of control and 100 % of control
T/C (dose: 2.8 mg/kg/injection, schedule: Q01DX005 (ip), vehicle: Klucel (hydroxypropylcellulose) (HPC)): 106 % of control and 113 % of control

O=C(C=C(C(F)(F)F)C(F)(F)F)c1cccc(S(=O)(=O)F)c1
T/C (dose: 3.13 mg/kg/injection, schedule: Q04DX003 (ip), vehicle: saline): 100 % of control
T/C (dose: 6.25 mg/kg/injection, schedule: Q04DX003 (ip), vehicle: saline): 100 % of control
T/C (dose: 12.5 mg/kg/injection, schedule: Q04DX003 (ip), vehicle: saline): 95 % of control

NNC(=O)CN(CC(=O)NN)CC(=O)NN
T/C (dose: 50.0 mg/kg/injection, schedule: Q01DX005 (ip), vehicle: water): 99 % of control
T/C (dose: 100.0 mg/kg/injection, schedule: Q01DX005 (ip), vehicle: water): 101 % of control
T/C (dose: 200.0 mg/kg/injection, schedule: Q01DX005 (ip), vehicle: water): 110 % of control

Fc1ccc2cc3cccc[n+]3cc2c1
T/C (dose: 6.25 mg/kg/injection, schedule: Q01DX005 (ip), vehicle: saline with Tween-80): 100 % of control
T/C [1]: 99 % of control
T/C [2]: 99 % of control

O=C1C=CC(=O)N1c1ccc(N2C(=O)C=CC2=O)cc1
T/C (dose: 0.78 mg/kg/injection, schedule: Q01DX009 (ip), vehicle: distilled water + Tween-80): 102 % of control and 115 % of control
T/C (dose: 1.56 mg/kg/injection, schedule: Q01DX009 (ip), vehicle: distilled water + Tween-80): 103 % of control and 120 % of control
T/C (dose: 3.13 mg/kg/injection, schedule: Q01DX009 (ip), vehicle: distilled water + Tween-80): 121 % of control and 97 % of control
T/C (dose: 6.25 mg/kg/injection, schedule: Q01DX009 (ip), vehicle: distilled water + Tween-80): 112 % of control and 118 % of control
T/C (dose: 12.5 mg/kg/injection, schedule: Q01DX009 (ip), vehicle: distilled water + Tween-80): 105 % of control

CC1=NN(C(=O)CC(=O)Nc2ccc(C(=O)O)cc2)C(=O)C1N=Nc1ccc(S(N)(=O)=O)cc1 (stereo not given)
T/C [3]: 96 % of control
T/C (dose: 100.0 mg/kg/injection, schedule: Q01DX005 (ip), vehicle: saline with Tween-80): 94 % of control
T/C (dose: 200.0 mg/kg/injection, schedule: Q01DX005 (ip), vehicle: saline with Tween-80): 93 % of control

CN(C)c1ccc(C(c2c(O)c3ccccc3oc2=O)c2c(O)c3ccccc3oc2=O)cc1
T/C (dose: 3.75 mg/kg/injection, schedule: Q01DX005 (ip), vehicle: saline with Tween-80): 99 % of control
T/C (dose: 7.5 mg/kg/injection, schedule: Q01DX005 (ip), vehicle: saline with Tween-80): 91 % of control
T/C (dose: 15.0 mg/kg/injection, schedule: Q01DX005 (ip), vehicle: saline with Tween-80): 88 % of control and 98 % of control

NC1(C(=O)O)CCCC1.O.[Cl][Au]
T/C [4]: 110 % of control

COC(=O)c1c(COC(=O)NC(C)C)c2n(c1C)CS(=O)(=O)C2
T/C [1]: 96 % of control
T/C [2]: 95 % of control
T/C [3]: 92 % of control

CS(=O)(=O)CCN(N=O)C(=N)N[N+](=O)[O-]
T/C (dose: 12.5 mg/kg/injection, schedule: Q04DX003 (ip), vehicle: saline with Tween-80): 118 % of control
T/C (dose: 25.0 mg/kg/injection, schedule: Q04DX003 (ip), vehicle: saline with Tween-80): 118 % of control
T/C (dose: 50.0 mg/kg/injection, schedule: Q01DX009 (ip), vehicle: saline with Tween-80): 159 % of control
T/C (dose: 50.0 mg/kg/injection, schedule: Q04DX003 (ip), vehicle: saline with Tween-80): 118 % of control
T/C (dose: 66.0 mg/kg/injection, schedule: Q04DX003 (ip), vehicle: saline with Tween-80): 154 % of control
T/C (dose: 150.0 mg/kg/injection, schedule: Q04DX003 (ip), vehicle: saline with Tween-80): 154 % of control

Nc1nc(-c2ccccn2)cc2ccccc12
T/C [4]: 105 % of control
T/C (dose: 120.0 mg/kg/injection, schedule: Q01DX005 (ip), vehicle: saline with Tween-80): 100 % of control

Nc1cc(Cl)c(N=Nc2ccccc2)c(N)n1
T/C (dose: 100.0 mg/kg/injection, schedule: Q01DX009 (ip), vehicle: saline with Tween-80): 103 % of control
T/C (dose: 200.0 mg/kg/injection, schedule: Q01DX009 (ip), vehicle: saline with Tween-80): 107 % of control
T/C (dose: 400.0 mg/kg/injection, schedule: Q01DX009 (ip), vehicle: saline with Tween-80): 94 % of control

O=c1c(Br)c(Cl)nc2ccccn12
T/C (dose: 100.0 mg/kg/injection, schedule: Q01DX001 (ip), vehicle: saline with Tween-80): 90 % of control
T/C (dose: 200.0 mg/kg/injection, schedule: Q01DX001 (ip), vehicle: saline with Tween-80): 100 % of control
T/C (dose: 400.0 mg/kg/injection, schedule: Q01DX001 (ip), vehicle: saline with Tween-80): 95 % of control

CNC(=S)N/N=C/c1nccc(-c2ccccc2)c1C
T/C (dose: 200.0 mg/kg/injection, schedule: Q04DX003 (ip), vehicle: saline with Tween-80): 107 % of control

OC(Cc1nc2ccccc2s1)c1ccco1 (stereo not given)
T/C (dose: 60.0 mg/kg/injection, schedule: Q01DX005 (ip), vehicle: Klucel (hydroxypropylcellulose) (HPC)): 101 % of control
T/C (dose: 120.0 mg/kg/injection, schedule: Q01DX005 (ip), vehicle: Klucel (hydroxypropylcellulose) (HPC)): 103 % of control
T/C (dose: 240.0 mg/kg/injection, schedule: Q01DX005 (ip), vehicle: Klucel (hydroxypropylcellulose) (HPC)): 103 % of control

COC1C(O)CC(OC2CC(Oc3cc4cc5c(c(O)c4c(O)c3C)C(=O)[C@@H](OC3CC(OC4CC(OC6CC(C)(O)C(OC(C)=O)C(C)O6)C(O)C(C)O4)C(O)C(C)O3)[C@H]([C@H](OC)C(=O)[C@@H](O)[C@@H](C)O)C5)OC(C)C2OC(C)=O)OC1C (stereo not given in full)
T/C (dose: 0.02 mg/kg/injection, schedule: Q01DX001 (ip), vehicle: other): 114 % of control
T/C (dose: 0.02 mg/kg/injection, schedule: Q01DX009 (ip), vehicle: saline sonified): 150 % of control
T/C (dose: 0.03 mg/kg/injection, schedule: Q01DX005 (ip), vehicle: saline): 150 % of control
T/C (dose: 0.03 mg/kg/injection, schedule: Q01DX005 (iv), vehicle: saline): 95 % of control
T/C (dose: 0.03 mg/kg/injection, schedule: Q01DX009 (ip), vehicle: saline): 154 % of control
T/C (dose: 0.04 mg/kg/injection, schedule: Q01DX009 (ip), vehicle: saline sonified): 165 % of control
T/C (dose: 0.05 mg/kg/injection, schedule: Q01DX005 (ip), vehicle: saline): 155 % of control
T/C (dose: 0.06 mg/kg/injection, schedule: Q01DX005 (ip), vehicle: saline): 175 % of control
T/C (dose: 0.08 mg/kg/injection, schedule: Q01DX009 (ip), vehicle: saline sonified): 180 % of control
T/C (dose: 0.1 mg/kg/injection, schedule: Q01DX005 (ip), vehicle: saline): 155 % of control
T/C (dose: 0.1 mg/kg/injection, schedule: Q01DX005 (iv), vehicle: saline): 98 % of control
T/C (dose: 0.12 mg/kg/injection, schedule: Q01DX005 (ip), vehicle: saline): 190 % of control
T/C (dose: 0.12 mg/kg/injection, schedule: Q04DX003 (ip), vehicle: saline): 154 % of control
T/C (dose: 0.15 mg/kg/injection, schedule: Q01DX009 (ip), vehicle: saline sonified): 180 % of control
T/C (dose: 0.2 mg/kg/injection, schedule: Q01DX005 (ip), vehicle: saline): 158 % of control
T/C (dose: 0.2 mg/kg/injection, schedule: Q01DX005 (iv), vehicle: saline): 100 % of control
T/C (dose: 0.25 mg/kg/injection, schedule: Q01DX005 (ip), vehicle: saline): 220 % of control
T/C (dose: 0.25 mg/kg/injection, schedule: Q04DX003 (ip), vehicle: saline): 175 % of control
T/C (dose: 0.3 mg/kg/injection, schedule: Q01DX009 (ip), vehicle: saline sonified): 180 % of control
T/C (dose: 0.3 mg/kg/injection, schedule: Q04DX003 (ip), vehicle: saline sonified): 181 % of control
T/C (dose: 0.4 mg/kg/injection, schedule: Q01DX005 (ip), vehicle: saline): 229 % of control
T/C (dose: 0.5 mg/kg/injection, schedule: Q01DX001 (ip), vehicle: other): 158 % of control
T/C (dose: 0.5 mg/kg/injection, schedule: Q01DX001 (ip), vehicle: saline): 172 % of control
T/C (dose: 0.5 mg/kg/injection, schedule: Q04DX003 (ip), vehicle: saline): 87 % of control
